Paper PMC7394103 (Frontiers in Pharmacology, 2020)

Columns and labels:
CAIA in BALB/c mice = test: Collagen-antibody-induced arthritis (CAIA), clinical score and histopathology; assay type: in vivo; details: for CAIA joint histopathology / severity of CAIA (mean arthritis score): 30 mg/kg i.p. daily; for CAIA joint histopathology: day 1 to 9, vs saline; for severity of CAIA (mean arthritis score): day 1 to 9, vs vehicle; for therapeutic effect in CAIA compared to IQ-1S: 30 mg/kg i.p., days 6 and 7
Procedure: CAIA was induced in 7- to 8-week-old BALB/c mice from Charles River Laboratories (Wilmington, MA, USA) by i.p. injection of a cocktail of monoclonal anti-CII antibodies (Chondrex; 1.5 mg/mouse) on day 0, followed by i.p. lipopolysaccharide (LPS) injection (30 μg LPS from Escherichia coli strain 0111:B4 in PBS) on day 3. Control animals received an equal volume of PBS.
Arthritis development was evaluated daily for 10 days post-injection of the monoclonal antibody cocktail. Arthritis symptoms were scored on scale of 0 to 4 in accordance with the Chondrex Mouse Arthritis Scoring System in a blinded manner, as follows: 0, no signs of inflammation; 1, mild redness or swelling of single joint (one of the interphalangeal joints, metacarpophalangeal joints, carpal joint for the front paw, and tarsal joint for the hind); 2, two joints have redness and swelling; 3, all three joint types have redness and swelling; 4, maximal redness and swelling of entire paw leads to the disappearance of anatomical definition.
In CAIA, animals were sacrificed on day 14, and their forward and hind limbs were processed as described above. Three sections in the sagittal projection of joints, 40 µm apart, were examined by the same system with the grades ranging 0 to 4. Total H&E histopathological score for three sections included cartilage destruction, pannus formation, and synovial cells changes. For cartilage destruction, the scale was: 0—normal, superficial zone is smooth; 1—superficial fibrillations, some loss of surface lamina; 2—vertical clefts/erosion to the calcified cartilage up to 25% of the surface; 3—vertical clefts/erosion to the calcified cartilage 25% to 50% of the surface, 4—vertical clefts/erosion to the calcified cartilage more than 50% of the surface, severe chondrocytes, and cartilage matrix loss with new bone tissue substitution. For pannus formation the scale was: 0—normal; 1—exudate in the joint; 2—single inflammatory cells in the exudate; 3—mild infiltration of the inflammatory cells; 4—heavy inflammatory infiltration and debris in the joint. For synovial membrane changes the scale was: 0 – normal, 1 to 2 layer of synovial lining cells; 1—initial hyperplasia of the cells and increased number of lining cells layers; 2—increased number of lining cell layers, more than 3 to 4 layers and/or proliferation of sub-synovial tissue; 3—more than 4 layers of lining cells, focal infiltration of inflammatory cells, proliferation of subsynovial tissue; 4—more than four layers of lining cells, diffused infiltration of inflammatory cells, proliferation of sub-synovial tissue.

[1] = system: IL-6 secretion by synovial SW982 cells; test: IL-1β-induced IL-6 secretion by SW982 cells (ELISA); assay type: cell-based, human; details: for IC50: Homo sapiens, SW982, 30 min compound, then 5 ng/ml IL-1β, 24 h, read-out: SW982 IL-6 IC50
Procedure: FLS, HUVEC, SW982, and THP-1 cells were plated in 96 well plates (10^4 to 10^5 cells/well) for 48 h before treatment. At 2 days post-confluency, the cells were serum-starved and washed twice (with the exception of THP-1 cell, which were not washed) with FBS-free medium prior to the addition of test compounds. […] Culture supernatants were collected and stored at –80°C. The levels of MMP-1 and MMP-3 were determined in culture supernatants using commercially available ELISA kits according to the manufacturer’s instructions (R&D System, Minneapolis, MN, USA). IL-6 levels were also determined in the supernatants using a human IL-6 ELISA kit (BD Biosciences, San Jose, CA, USA).

IL-6 secretion by FLS = test: IL-1β-induced IL-6 secretion by FLS (ELISA); assay type: cell-based; details: Homo sapiens; 30 min compound, then 5 ng/ml IL-1β, 24 h
Source text: This study was approved by the Institutional Review Board of University of California, San Diego School of Medicine (La Jolla, CA, USA). Informed consent was obtained from all participants. Anonymous synovial tissue samples were obtained from six patients with RA at the time of total joint replacement (5 females, 1 male; age range, 44–72 years), as previously described ([Alvaro-Gracia et al., 1990]). The diagnosis of RA conformed to American College of Rheumatology 1987 revised criteria ([Arnett et al., 1988]). The synovium was minced and incubated with collagenase type VIII (0.5 mg/ml) (Sigma-Aldrich) in serum-free RPMI-1640 (Life Technologies, Grand Island, NY, USA) for 2 h at 37°C, filtered, extensively washed, and cultured in DMEM (Life Technologies) supplemented with 10% FBS (Gemini Bio Products, Calabasas, CA, USA), penicillin, streptomycin, gentamicin, and glutamine in a humidified 5% CO2 atmosphere. […]
FLS, HUVEC, SW982, and THP-1 cells were plated in 96 well plates (10^4 to 10^5 cells/well) for 48 h before treatment. […] The levels of MMP-1 and MMP-3 were determined in culture supernatants using commercially available ELISA kits according to the manufacturer’s instructions (R&D System, Minneapolis, MN, USA). IL-6 levels were also determined in the supernatants using a human IL-6 ELISA kit (BD Biosciences, San Jose, CA, USA).

[2] = system: CII-specific Abs in CIA mice; test: Anti-CII antibody ELISA in serum of CIA mice; assay type: in vivo; details: 30 mg/kg i.p. daily, day 8 to 42, vs saline
Procedure: Serum samples from mice with CIA were collected on day 44 after CII injection. Samples of the diluted sera were added to microtiter plates (Greiner Bio-One, Monroe, NC, USA) coated with 2 μg/ml ELISA grade mouse CII (Chondrex). Horseradish peroxidase-conjugated goat […] total IgG, IgG1, IgG2a, IgG2b, and IgG3 (Southern Biotechnology Associates, Birmingham, AL, USA) were used for detection. The samples were developed with 2,2’-azino-bis(3-ethylbenzothiazoline-6-sulphonic acid (Moss Inc., Pasadena, MD, USA), and absorbance was monitored at 415 nm using a SpectraMax Plus microplate reader. Endpoint titer represents reciprocal log 2 for the serum dilution with absorbance ≥ 0.1 above negative control.

Structure (SMILES)	CAIA joint histopathology (CAIA in BALB/c mice)	severity of CAIA (mean arthritis score) (CAIA in BALB/c mice)	therapeutic effect in CAIA compared to IQ-1S (CAIA in BALB/c mice)	overall inhibition of IL-6 secretion in combination with SP600125 ([1]; 5 µM TRYP plus SP600125, compared to SP600125 alone)	IC50 [1]	IC50 (IL-6 secretion by FLS)	titers of CII-specific IgG, IgG1, IgG2a, IgG2b, IgG3 [2]
O=C1c2ccccc2-n2c1nc1ccccc1c2=O [TRYP, indolo[2,1-b]quinazolin-6,12-dione]	little cartilage erosion, synovial hyperplasia, or cellular infiltration	significant reductions in the severity of CAIA	significantly greater	acted synergistically	2.5 ± 1.1 µM	14.8 ± 1.8 µM	significantly lower
O=c1c2ccccc2nc2n1-c1ccccc1/C2=N/O [TRYP-Ox, tryptanthrin-6-oxime]	little cartilage erosion, synovial hyperplasia, or cellular infiltration	significant reductions in the severity of CAIA	significantly greater	–	0.4 ± 0.2 µM	7.4 ± 1.2 µM	significantly lower
